Measured values from patent publication US20250082774A1, “PEPTIDE LINKERS COMPRISING TWO OR MORE PAYLOADS” (ARARIS BIOTECH AG, priority 2022, published 2025).
Entries after “also recorded” stand apart in the source; their conditions may differ.

How the values were obtained:
various tumor cell lines = conditions: cited from earlier work
[1] = tested on: SUM190PT (Nectin-4-positive, solid tumor) xenograft; experiment: Tumor growth inhibition in SUM190PT xenograft model; assay type: in vivo, CB17 SCID mice; conditions: single i.v. injection
Method: For SUM190PT xenografts, 2×10^6 cells were injected into the mammary fat pad of CB17 SCID mice (Janvier). Tumor dimensions and body weights were recorded three times weekly. The tumor volume was calculated according to the formula volume=(width)^2×length×0.5. When the average tumor size reached about 200 mm^3, mice were allocated using a non-random stratification protocol into the treatment groups comprising six mice each. ADCs were intravenously injected once on the day of randomization. The ADCs according to this invention were produced in-house as described in Example 2. Enfortumab vedotin (DAR 4) was commercially available, bought from a pharmacy. ARA-04-MMAE-PABC-AA-C2-RKAA-PABC-MMAE (DAR 4.0) and ARA-04-RKAA-PABC-(MMAE)2 (DAR 3.8) were injected at ADC doses corresponding to 10 μg payload dose per kg mouse weight (10 μg/kg). Enfortumab vedotin (DAR 4) was injected 15 μg payload dose per kg mouse weight (15 μg/kg). Mice in the control group were injected with PBS. All mouse experiments were performed in accordance with Swiss guidelines and were approved by the Veterinarian Office of Zurich, Switzerland.

RNA-polymerase II = RNA-polymerase II (Homo sapiens, UniProt P24928); conditions: read-out: KD of the complex between amanitin and RNA-polymerase II; cited from earlier work
[2] = 10 μg/kg payload dose, six mice per group

## CC[C@H](C)[C@H](NC(=O)[C@H]1CCCCN1C)C(=O)N(COC(=O)CC(C)C)[C@H](C[C@@H](OC(C)=O)c1nc(C(=O)N[C@@H](Cc2ccc(O)cc2)C[C@H](C)C(=O)O)cs1)C(C)C [Tubulysin A]
Various tumor cell lines
  IC50, cytostatic effects: picomolar range

## ARA-04-MMAE-PABC-AA-C2-RKAA-PABC-MMAE: anti-Nectin-4 ADC (DAR 4.0), same antibody and payload as Enfortumab vedotin, payloads at N- and C-terminal end of peptide linker
[1]; [2]
  anti-tumor response (in words): active in vivo; also recorded: superior efficacy providing survival advantage
  mice with complete long-lasting responses: 4/6

## ARA-04-RKAA-PABC-(MMAE)2: anti-Nectin-4 ADC (DAR 3.8), same antibody and payload as Enfortumab vedotin, payloads only at C-terminal end of peptide linker
[1]; [2]
  anti-tumor response (in words): tumor control for approximately 20 days in 6/6 mice followed by re-growth of tumors; also recorded: active in vivo

## Enfortumab vedotin [reference compound]
[1]; 15 μg/kg payload dose
  animals with marked regrowth after day 40: 6/6
[1]; 15 μg/kg payload dose, six mice per group
  anti-tumor response (in words): transient tumor regression with no tumor-free individuals at 20 days after treatment

## amanitin
RNA-polymerase II
  Kd: 3 nM
